{
  "source": "patent US20230015691A1",
  "about": "“PROPHYLACTIC OR THERAPEUTIC AGENT FOR NON-ALCOHOLIC STEATOHEPATITIS IN HUMANS” (MITSUBISHI TANABE PHARMA CORPORATION, priority 2019, published 2023)",
  "key": {"[1]": {"test": "Body weight change in NASH patients (clinical trial, 72 weeks)", "format": "in vivo, human", "conditions": "10 mg once daily; for Change from baseline/Weight, Mean (SD): NASH patients", "procedure": "(§1) [Test Protocol] • Number of cases to be analyzed: 47 cases (placebo administration group: 23 cases; MT-3995 administration group: 24 cases) • The subjects were selected according to the following criteria.\nKleiner fibrosis classification: Stage 2 or Stage 3\n(§2) • Pre-observation period (number of weeks): 10 weeks • Administration period (number of weeks): 72 weeks • Post-observation period (number of weeks): 8 weeks • Dosage and administration: MT-3995 administration group=once daily, 10 mg; placebo group=once-daily administration\nTable 2 and FIG. 1 show the average amount of change in the body weight after the assignment, in the placebo group and the MT-3995 group. The body weight was measured at the time of the visit."}, "[2]": {"system": "serum hyaluronic acid (HA)", "test": "Change in serum hyaluronic acid level (Chemilumi Hyaluronic Acid)", "format": "in vivo, human", "conditions": "for Change from baseline/Hyaluronic Acid, LS Mean: serum, NASH patients, 10 mg once daily", "procedure": "as §1, §2\nTable 3 and FIG. 2 show the average amount of change in the serum hyaluronic acid level after the assignment. For measurement of the serum hyaluronic acid level, serum was prepared from blood collected from each patient on the day of the visit, according to a conventional method. The prepared serum was subjected to a test. For the measurement, Chemilumi Hyaluronic Acid (Siemens Healthcare Diagnostics K. K.) was used."}, "[3]": {"system": "plasma-soluble Vascular Cell Adhesion Molecule-1 (sVCAM)", "test": "Change in plasma sVCAM-1 level (Human sVCAM-1/CD106 Quantikine ELISA Kit)", "format": "in vivo", "conditions": "for Change from baseline/sVCAM-1, Mean: plasma, 10 mg once daily", "procedure": "as §1, §2\nTable 6-1 and FIG. 5-1 show the average amount of change in the plasma-soluble Vascular Cell Adhesion Molecule-1 (sVCAM) after the assignment. For measurement of the plasma sVCAM level, plasma was prepared from blood collected from each patient, according to a conventional method. The prepared plasma was subjected to a test. For the measurement, a Human sVCAM-1/CD106 Quantikine ELISA Kit (R&D Systems, Inc.) was used.\nA stratified analysis was carried out for the subjects based on the presence or absence of complication with diabetes. DM represents the “group of patients complicated with diabetes”. A higher effect was found in the group of patients complicated with diabetes.\nFurther, a stratified analysis was carried out for the subjects based on the presence or absence of complication with hypertension. HP represents the “group of patients complicated with hypertension”. A higher effect was found in the group of patients complicated with hypertension."}, "[4]": {"system": "liver stiffness", "test": "Change in liver stiffness (Shear Wave Elastography)", "format": "in vivo, human", "conditions": "for Change from baseline/Liver stiffness (Shear Wave Elastography), Mean (SD): NASH patients, 10 mg once daily", "procedure": "as §1, §2\n(§3) The liver stiffness after the assignment was measured using Shear Wave Elastography or Fibro scan. Table 7 and FIG. 6 show the average amount of change in the liver stiffness according to Shear Wave Elastography. Table 8 and FIG. 7 show the average amount of change in the liver stiffness according to Fibro scan."}, "[5]": {"system": "liver stiffness", "test": "Change in liver stiffness (Fibro scan)", "format": "in vivo, human", "conditions": "for Change from baseline/Liver stiffness (Fibro scan), Mean: NASH patients, 10 mg once daily", "procedure": "as §1, §2, §3"}, "[6]": {"system": "non-alcoholic steatohepatitis (NASH) model rats", "conditions": "Patent Document 1; cited from earlier work"}},
  "data": [
    {"compound": "CC1(C)Oc2cc(NS(C)(=O)=O)ccc2N(c2ccc(F)cc2)C1=O", "note": "[MT-3995]", "values": [
      {"measurement": "Rate of body weight reduction versus placebo group", "setting": "[1]; 72 weeks", "value": "higher in the MT-3995 administration group than in the placebo group"},
      {"measurement": "Change from baseline/Weight, Mean (SD)", "setting": "[1]; Week 12", "value": "−1.39 (1.55) kg"},
      {"measurement": "Change from baseline/Weight, Mean (SD)", "setting": "[1]; Week 24", "value": "−1.73 (2.09) kg"},
      {"measurement": "Change from baseline/Weight, Mean (SD)", "setting": "[1]; Week 36", "value": "−1.88 (2.99) kg"},
      {"measurement": "Change from baseline/Weight, Mean (SD)", "setting": "[1]; Week 48", "value": "−2.15 (3.23) kg"},
      {"measurement": "Change from baseline/Weight, Mean (SD)", "setting": "[1]; Week 60", "value": "−2.23 (3.25) kg"},
      {"measurement": "Change from baseline/Weight, Mean (SD)", "setting": "[1]; Week 72", "value": "−2.21 (3.10) kg"},
      {"measurement": "Body weight change", "setting": "[1]; from the beginning of the administration", "value": "A decrease in the body weight was found"},
      {"measurement": "Serum hyaluronic acid level versus placebo group", "setting": "[2]; Weeks 24, 48, and 72 after the beginning of the administration", "value": "significantly lower than the level in the placebo group"},
      {"measurement": "Change from baseline/Hyaluronic Acid, LS Mean", "setting": "[2]; Week 12", "value": -31.87, "unit": "ng/mL"},
      {"measurement": "Change from baseline/Hyaluronic Acid, LS Mean", "setting": "[2]; Week 24", "value": -39.02, "unit": "ng/mL"},
      {"measurement": "Change from baseline/Hyaluronic Acid, LS Mean", "setting": "[2]; Week 48", "value": -47.23, "unit": "ng/mL"},
      {"measurement": "Change from baseline/Hyaluronic Acid, LS Mean", "setting": "[2]; Week 72", "value": -32.02, "unit": "ng/mL"},
      {"measurement": "Serum hyaluronic acid level versus beginning of the administration", "setting": "[2]; throughout the treatment period", "value": "lower than the level observed at the beginning of the administration"},
      {"measurement": "Plasma sVCAM value versus placebo group", "setting": "[3]; Week 24, Week 48, and Week 72", "value": "lower than the value in the placebo group"},
      {"measurement": "Plasma sVCAM values versus beginning of the administration", "setting": "[3]; from Week 24 after the beginning of the administration", "value": "lower plasma sVCAM values"},
      {"measurement": "Change from baseline/sVCAM-1, Mean", "setting": "[3]; DM (patients complicated with diabetes), Week 12", "value": -6.58, "unit": "ng/mL"},
      {"measurement": "Change from baseline/sVCAM-1, Mean", "setting": "[3]; DM (patients complicated with diabetes), Week 24", "value": -47.08, "unit": "ng/mL"},
      {"measurement": "Change from baseline/sVCAM-1, Mean", "setting": "[3]; DM (patients complicated with diabetes), Week 48", "value": -62.73, "unit": "ng/mL"},
      {"measurement": "Change from baseline/sVCAM-1, Mean", "setting": "[3]; DM (patients complicated with diabetes), Week 72", "value": -112.27, "unit": "ng/mL"},
      {"measurement": "Change from baseline/sVCAM-1, Mean", "setting": "[3]; HP (patients complicated with hypertension), Week 12", "value": 5.69, "unit": "ng/mL"},
      {"measurement": "Change from baseline/sVCAM-1, Mean", "setting": "[3]; HP (patients complicated with hypertension), Week 24", "value": -44.06, "unit": "ng/mL"},
      {"measurement": "Change from baseline/sVCAM-1, Mean", "setting": "[3]; HP (patients complicated with hypertension), Week 48", "value": -70.29, "unit": "ng/mL"},
      {"measurement": "Change from baseline/sVCAM-1, Mean", "setting": "[3]; HP (patients complicated with hypertension), Week 72", "value": -89.57, "unit": "ng/mL"},
      {"measurement": "Change from baseline/sVCAM-1, Mean", "setting": "[3]; all NASH patients, Week 12", "value": 13.8, "unit": "ng/mL"},
      {"measurement": "Change from baseline/sVCAM-1, Mean", "setting": "[3]; all NASH patients, Week 24", "value": -43.8, "unit": "ng/mL"},
      {"measurement": "Change from baseline/sVCAM-1, Mean", "setting": "[3]; all NASH patients, Week 48", "value": -44.7, "unit": "ng/mL"},
      {"measurement": "Change from baseline/sVCAM-1, Mean", "setting": "[3]; all NASH patients, Week 72", "value": -74.7, "unit": "ng/mL"},
      {"measurement": "Change from baseline/sVCAM-1, Mean", "setting": "[3]; non-DM patients, Week 12", "value": 34.25, "unit": "ng/mL"},
      {"measurement": "Change from baseline/sVCAM-1, Mean", "setting": "[3]; non-DM patients, Week 24", "value": -40.58, "unit": "ng/mL"},
      {"measurement": "Change from baseline/sVCAM-1, Mean", "setting": "[3]; non-DM patients, Week 48", "value": -26.64, "unit": "ng/mL"},
      {"measurement": "Change from baseline/sVCAM-1, Mean", "setting": "[3]; non-DM patients, Week 72", "value": -37.18, "unit": "ng/mL"},
      {"measurement": "Change from baseline/sVCAM-1, Mean", "setting": "[3]; non-HP patients, Week 12", "value": 30.13, "unit": "ng/mL"},
      {"measurement": "Change from baseline/sVCAM-1, Mean", "setting": "[3]; non-HP patients, Week 24", "value": -43.38, "unit": "ng/mL"},
      {"measurement": "Change from baseline/sVCAM-1, Mean", "setting": "[3]; non-HP patients, Week 48", "value": 0.13, "unit": "ng/mL"},
      {"measurement": "Change from baseline/sVCAM-1, Mean", "setting": "[3]; non-HP patients, Week 72", "value": -48.75, "unit": "ng/mL"},
      {"measurement": "Change from baseline/Liver stiffness (Shear Wave Elastography), Mean (SD)", "setting": "[4]; Week 12", "value": "−4.57 (2.48) kPa"},
      {"measurement": "Change from baseline/Liver stiffness (Shear Wave Elastography), Mean (SD)", "setting": "[4]; Week 24", "value": "−5.63 (3.23) kPa"},
      {"measurement": "Change from baseline/Liver stiffness (Shear Wave Elastography), Mean (SD)", "setting": "[4]; Week 48", "value": "−4.90 (4.38) kPa"},
      {"measurement": "Change from baseline/Liver stiffness (Shear Wave Elastography), Mean (SD)", "setting": "[4]; Week 72", "value": "−6.00 (5.23) kPa"},
      {"measurement": "Liver stiffness versus beginning of the administration", "setting": "[4]; Shear Wave Elastography, throughout the treatment period", "value": "lower than the value observed at the beginning of the administration"},
      {"measurement": "Liver stiffness versus beginning of the administration", "setting": "[5]; Fibro scan, throughout the treatment period", "value": "lower than the value observed at the beginning of the administration"},
      {"measurement": "Change from baseline/Liver stiffness (Fibro scan), Mean", "setting": "[5]; Week 12", "value": "−0.49", "unit": "kPa"},
      {"measurement": "Change from baseline/Liver stiffness (Fibro scan), Mean", "setting": "[5]; Week 24", "value": 0.30, "unit": "kPa"},
      {"measurement": "Change from baseline/Liver stiffness (Fibro scan), Mean", "setting": "[5]; Week 48", "value": "−1.05", "unit": "kPa"},
      {"measurement": "Change from baseline/Liver stiffness (Fibro scan), Mean", "setting": "[5]; Week 72", "value": "−1.41", "unit": "kPa"},
      {"measurement": "Effectiveness based on Sirius Red-positive area and fibrosis score", "setting": "[6]", "value": "effectiveness"}
    ]}
  ]
}
